“And” between values parts separate entries of the source, which are not always exact repeats. Equal entries are not always repeated. “Also recorded” adds a separate entry of the source. Where two headings read alike, the source gives them in different places.
Columns and labels:
Assay type in all cases: cell-based
[1] = biological target: T1, constitutively active EP4 S319A (Homo sapiens, UniProt P35408, S319A); assay: GloSensor cAMP assay, inhibition of constitutive activity
T1 construct: The full-length EP2 or EP4 was cloned into the pcDNA3.1 vector (Invitrogen), incorporating an N-terminal FLAG tag; expressed in transfected cells; host or cells: AD293
T1 sequence (P35408 whole entry S319A): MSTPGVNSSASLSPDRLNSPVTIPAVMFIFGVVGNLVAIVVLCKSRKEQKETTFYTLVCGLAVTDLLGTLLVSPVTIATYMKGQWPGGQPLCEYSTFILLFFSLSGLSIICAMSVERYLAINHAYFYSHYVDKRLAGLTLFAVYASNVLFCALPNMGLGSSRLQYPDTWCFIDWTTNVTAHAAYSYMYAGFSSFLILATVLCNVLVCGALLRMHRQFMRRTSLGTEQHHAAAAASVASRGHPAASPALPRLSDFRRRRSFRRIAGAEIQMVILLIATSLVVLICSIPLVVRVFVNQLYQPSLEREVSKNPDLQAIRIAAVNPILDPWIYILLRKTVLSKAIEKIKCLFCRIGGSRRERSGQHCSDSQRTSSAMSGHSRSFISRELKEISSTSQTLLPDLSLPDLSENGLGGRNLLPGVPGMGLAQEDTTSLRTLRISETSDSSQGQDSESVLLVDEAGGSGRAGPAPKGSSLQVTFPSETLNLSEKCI
Experimental: (§1) The full-length EP2 or EP4 was cloned into the pcDNA3.1 vector (Invitrogen), incorporating an N-terminal FLAG tag. AD293 cells were seeded in six-well plates containing DMEM supplemented with 10% dialyzed FBS 1 day prior to transfection. Following overnight growth, cells were transfected with a 1:1 ratio of receptor construct and GloSensor22F cAMP biosensor (Promega) plasmids.
(§2) Twenty-four hours post-transfection, the cells were transferred to CO2-independent media containing 2% GloSensor cAMP Reagent (Promega) and distributed into 384-well assay plates at a density of 4000 cells per well in 10 μL. […] The plates were then incubated at 37 °C for an additional hour before luminescence measurements were taken using an EnVision plate reader.
(§3) Data analysis was performed using GraphPad Prism software v8.0.1. A nonlinear regression analysis, employing a sigmoidal dose–response model, was conducted to determine the Emax values and half-maximum inhibitory concentrations (IC50) for each compound tested.

[2] = biological target: T2, constitutively active EP4 V72A (Homo sapiens, UniProt P35408, V72A); assay: as above
T2 construct: The full-length EP2 or EP4 was cloned into the pcDNA3.1 vector (Invitrogen), incorporating an N-terminal FLAG tag; expressed in transfected cells; host or cells: AD293
T2 sequence (P35408 whole entry V72A): as the sequence (P35408 whole entry S319A) above, with V72A, A319S counted along it
Experimental: as §1, §2, §3

[3] = biological target: T3, constitutively active EP4 WT (Homo sapiens, UniProt P35408); assay: as above
T3 construct: The full-length EP2 or EP4 was cloned into the pcDNA3.1 vector (Invitrogen), incorporating an N-terminal FLAG tag; expressed in transfected cells; host or cells: AD293
T3 sequence (P35408 whole entry): as the sequence (P35408 whole entry S319A) above, with A319S counted along it
Experimental: as §1, §2, §3

[4] = biological target: EP2 WT (Homo sapiens, UniProt P43116); assay: GloSensor cAMP assay, antagonism of PGE2-induced cAMP; set-up: The full-length EP2 or EP4 was cloned into the pcDNA3.1 vector; FLAG (N); expressed in transfected cells; host or cells: AD293 cells
Chain of EP2 WT (P43116 whole entry): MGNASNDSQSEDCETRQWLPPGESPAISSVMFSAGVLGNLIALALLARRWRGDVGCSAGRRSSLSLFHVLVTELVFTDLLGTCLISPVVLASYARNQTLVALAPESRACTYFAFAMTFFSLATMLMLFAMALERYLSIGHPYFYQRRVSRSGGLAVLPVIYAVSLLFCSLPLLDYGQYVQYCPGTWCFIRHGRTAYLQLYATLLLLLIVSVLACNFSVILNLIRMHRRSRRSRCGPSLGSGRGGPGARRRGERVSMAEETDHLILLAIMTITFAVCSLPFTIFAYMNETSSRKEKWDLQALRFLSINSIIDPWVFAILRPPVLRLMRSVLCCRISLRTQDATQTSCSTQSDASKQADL
Experimental: as §1, §2, §3

[5] = no PGE2, pIC50 mutant - pIC50 WT, mean

remaining activity at 100 µM ([1]; 1 h, TG6-129 log([M]) -4.00, EP4-S319A, read-out: % cAMP activity (normalized to WT)): 6.8% | remaining activity at […] ([1]; 1 h, TG6-129 log([M]) -4.70, EP4-S319A, read-out: % cAMP activity (normalized to WT)): 46.6% | remaining activity at 0.006457 µM ([1]; 1 h, TG6-129 log([M]) -8.19, EP4-S319A, read-out: % cAMP activity (normalized to WT)): 114% | remaining activity at 0.001288 µM ([1]; 1 h, TG6-129 log([M]) -8.89, EP4-S319A, read-out: % cAMP activity (normalized to WT)): 108% | TG6-129 cAMP activity (∆pIC50 from EP4 WT), Mean ([1]; S319A, Mean): -0.460 | TG6-129 cAMP activity (∆pIC50 from EP4 WT) ([1]; S319A, single experiments 1st-3rd): -0.435 and -0.502 and -0.443 | ΔpIC50 [1, 5]: -0.46 ± 0.02 | IC50 [2]: 18.6 µM | remaining activity at 100 µM ([2]; 1 h, TG6-129 log([M]) -4.00, EP4-V72A, read-out: % cAMP activity (normalized to WT)): 9.67% | remaining activity at […] ([2]; 1 h, TG6-129 log([M]) -4.70, EP4-V72A, read-out: % cAMP activity (normalized to WT)): 26.1% | remaining activity at […] ([2]; 1 h, TG6-129 log([M]) -5.40, EP4-V72A, read-out: % cAMP activity (normalized to WT)): 41.3% | remaining activity at […] ([2]; 1 h, TG6-129 log([M]) -6.10, EP4-V72A, read-out: % cAMP activity (normalized to WT)): 40.6% | remaining activity at 0.1585 µM ([2]; 1 h, TG6-129 log([M]) -6.80, EP4-V72A, read-out: % cAMP activity (normalized to WT)): 44.9% | remaining activity at 0.03236 µM ([2]; 1 h, TG6-129 log([M]) -7.49, EP4-V72A, read-out: % cAMP activity (normalized to WT)): 51.4% | remaining activity at 0.006457 µM ([2]; 1 h, TG6-129 log([M]) -8.19, EP4-V72A, read-out: % cAMP activity (normalized to WT)): 46.4% | remaining activity at 0.001288 µM ([2]; 1 h, TG6-129 log([M]) -8.89, EP4-V72A, read-out: % cAMP activity (normalized to WT)): 40.4% | TG6-129 cAMP activity (∆pIC50 from EP4 WT), Mean ([2]; V72A, Mean): -0.480 | TG6-129 cAMP activity (∆pIC50 from EP4 WT) ([2]; V72A, single experiments 1st-3rd): -0.475 and -0.451 and -0.514 | ΔpIC50 [2, 5]: -0.48 ± 0.02 | IC50 [3]: 5.01 µM | remaining activity at 100 µM ([3]; 1 h, TG6-129 log([M]) -4.00, EP4-WT, read-out: % cAMP activity (normalized to WT)): 7.78% | remaining activity at […] ([3]; 1 h, TG6-129 log([M]) -4.70, EP4-WT, read-out: % cAMP activity (normalized to WT)): 22.1% | remaining activity at […] ([3]; 1 h, TG6-129 log([M]) -5.40, EP4-WT, read-out: % cAMP activity (normalized to WT)): 65.6% | remaining activity at […] ([3]; 1 h, TG6-129 log([M]) -6.10, EP4-WT, read-out: % cAMP activity (normalized to WT)): 88.8% | remaining activity at 0.1585 µM ([3]; 1 h, TG6-129 log([M]) -6.80, EP4-WT, read-out: % cAMP activity (normalized to WT)): 91.8% | remaining activity at 0.03236 µM ([3]; 1 h, TG6-129 log([M]) -7.49, EP4-WT, read-out: % cAMP activity (normalized to WT)): 96% | remaining activity at 0.006457 µM ([3]; 1 h, TG6-129 log([M]) -8.19, EP4-WT, read-out: % cAMP activity (normalized to WT)): 103% | remaining activity at 0.001288 µM ([3]; 1 h, TG6-129 log([M]) -8.89, EP4-WT, read-out: % cAMP activity (normalized to WT)): 106% | TG6-129 cAMP activity (∆pIC50 from EP4 WT) ([3]; WT, single experiments 1st-3rd): -0.065 and 0.051 and 0.101 | IC50 [4]: 0.0813 µM | remaining activity at 0.1 µM ([4]; 1 h, TG6-129 log([M]) -7, read-out: % cAMP activity (normalized to WT)): 40.1% | remaining activity at 0.01 µM ([4]; 1 h, TG6-129 log([M]) -8, read-out: % cAMP activity (normalized to WT)): 94.7% | remaining activity at 0.001 µM ([4]; 1 h, TG6-129 log([M]) -9, read-out: % cAMP activity (normalized to WT)): 104% | remaining activity at 0.0001 µM ([4]; 1 h, TG6-129 log([M]) -10, read-out: % cAMP activity (normalized to WT)): 94.6% | remaining activity at 10 pM ([4]; 1 h, TG6-129 log([M]) -11, read-out: % cAMP activity (normalized to WT)): 102% | remaining activity at 1 pM ([4]; 1 h, TG6-129 log([M]) -12, read-out: % cAMP activity (normalized to WT)): 94.1% | remaining activity at 1 µM ([4]; 1 h, ligand log([M]) -6, single experiments 1st-3rd, Fig. S7B, read-out: % cAMP activity (normalized to WT)): 3.11% | remaining activity at 0.1 µM ([4]; 1 h, ligand log([M]) -7, single experiments 1st-3rd, Fig. S7B, read-out: % cAMP activity (normalized to WT)): 42.8% | remaining activity at 0.01 µM ([4]; 1 h, ligand log([M]) -8, single experiments 1st-3rd, Fig. S7B, read-out: % cAMP activity (normalized to WT)): 80.3% | remaining activity at 0.001 µM ([4]; 1 h, ligand log([M]) -9, single experiments 1st-3rd, Fig. S7B, read-out: % cAMP activity (normalized to WT)): 95.4% | remaining activity at 0.0001 µM ([4]; 1 h, ligand log([M]) -10, single experiments 1st-3rd, Fig. S7B, read-out: % cAMP activity (normalized to WT)): 93.9% | remaining activity at 10 pM ([4]; 1 h, ligand log([M]) -11, single experiments 1st-3rd, Fig. S7B, read-out: % cAMP activity (normalized to WT)): 103% | remaining activity at 1 pM ([4]; 1 h, ligand log([M]) -12, single experiments 1st-3rd, Fig. S7B, read-out: % cAMP activity (normalized to WT)): 110% | remaining activity at 0.1 µM ([4]; 1 h, read-out: % cAMP activity on EP2 (normalized to PF-04418948), ligand log([M]) -7, single experiments 1st-3rd, Fig. S1A): 46% | remaining activity at 0.01 µM ([4]; 1 h, read-out: % cAMP activity on EP2 (normalized to PF-04418948), ligand log([M]) -8, single experiments 1st-3rd, Fig. S1A): 84.5% | remaining activity at 0.001 µM ([4]; 1 h, read-out: % cAMP activity on EP2 (normalized to PF-04418948), ligand log([M]) -9, single experiments 1st-3rd, Fig. S1A): 100% | remaining activity at 0.0001 µM ([4]; 1 h, read-out: % cAMP activity on EP2 (normalized to PF-04418948), ligand log([M]) -10, single experiments 1st-3rd, Fig. S1A): 98.6% | remaining activity at 10 pM ([4]; 1 h, read-out: % cAMP activity on EP2 (normalized to PF-04418948), ligand log([M]) -11, single experiments 1st-3rd, Fig. S1A): 108% | remaining activity at 1 pM ([4]; 1 h, read-out: % cAMP activity on EP2 (normalized to PF-04418948), ligand log([M]) -12, single experiments 1st-3rd, Fig. S1A): 115% | cAMP activity (∆pIC50 from EP2 WT) ([4]; TG6-129, WT, single experiments 1st-3rd): 0.065 and 0.064 and -0.014 | cAMP activity (∆pIC50 from EP2 WT) ([4]; single experiments 1st-3rd, Appendix Fig. S7A): 0.111 and -0.076 and -0.052
Compound: CCc1nnc(NS(=O)(=O)c2ccc(NC(=S)NC(=O)/C=C/c3ccc(F)cc3)cc2)s1 [TG6-129]
antagonism profile EP2 versus EP4 (in words) ([4]; cAMP accumulation assay upon PGE2 stimulation, Appendix Fig. S1A): dual antagonist that preferentially antagonizes EP2; also recorded: preferential potency toward EP2

Source: article PMC12669672, “Structural insights into selective and dual antagonism of EP2 and EP4 prostaglandin receptors” (The EMBO Journal, 2025)
